Assay results taken from patent US10329294B2, “Pyrazolopyrimidine inhibitors of IRAK4 activity” (MERCK SHARP & DOHME CORP., priority 2015, dated 2019).
pIC50: −log10 of the molar value. Counter-ions that a name gives are not always drawn.

Biological target: IRAK4 (Homo sapiens (Human), UniProt Q9NWZ3)
Experiment: IRAK4 Kinase Assay
Type: biochemical
Details: IMAP fluorescence polarization, 0.5 nM GST tagged IRAK4, 100 μM ATP, 30 minutes at 25° C.; read-out: IRAK4 IC50
Description: The kinase activity of IRAK4 is determined by its ability to catalyze the phosphorylation of a fluorescent polypeptide substrate. The extent of phosphorylation is measured using the IMAP technology (Molecular Devices) where the phosphorylated fluorescent substrate binds to the large M(III)-based nanoparticles which reduces the rotational speed of the substrate and thus increases its fluorescent polarization (FP).
20 μL reaction mixture contains 10 mM TriHCl, pH 7.2, 0.5 nM GST tagged IRAK4 (SignalChem), 100 nM fluorescent peptide substrate (RP7030, Molecular Devices), 100 μM ATP, 1 mM DDT, 1 mM MgCl2, and 0.01% Tween 20. The reaction is initiated by the addition of ATP. After incubation for 30 minutes at 25° C., 60 μL of Progressive IMAP Reagent (Molecular Devices) is added to stop the reaction. Change in RP7030's FP is determined by a FP reader (Analyst HT, LJL BioSystems).

Chain of IRAK4 (Q9NWZ3 whole entry): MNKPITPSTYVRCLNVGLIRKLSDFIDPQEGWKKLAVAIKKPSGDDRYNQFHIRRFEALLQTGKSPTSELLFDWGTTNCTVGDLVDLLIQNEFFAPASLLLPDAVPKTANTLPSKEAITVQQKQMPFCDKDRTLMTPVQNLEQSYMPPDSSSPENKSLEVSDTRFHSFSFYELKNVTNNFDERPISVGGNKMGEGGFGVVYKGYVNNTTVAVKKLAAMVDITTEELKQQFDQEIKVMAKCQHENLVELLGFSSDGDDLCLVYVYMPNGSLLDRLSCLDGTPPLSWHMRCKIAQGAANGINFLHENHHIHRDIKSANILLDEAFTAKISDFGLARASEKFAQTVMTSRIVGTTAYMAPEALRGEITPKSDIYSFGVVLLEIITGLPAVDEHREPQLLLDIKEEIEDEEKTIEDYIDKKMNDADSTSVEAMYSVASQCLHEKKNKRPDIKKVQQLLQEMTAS

Structure (SMILES)	pIC50
Cn1cc(NC(=O)c2cnn3ccc(N4CCN5CCCC5C4)nc23)c(C(F)(F)F)n1 (stereo not shown) [Example 18, 5-(hexahydropyrrolo[1,2-a]pyrazin-2(1H)-yl)-N-[1-methyl-3-(trifluoromethyl)-1H-pyrazol-4-yl]pyrazolo[1,5-a]pyrimidine-3-carboxamide]	7.01
Cn1cc(NC(=O)c2cnn3ccc(N4CC5CC(C4)N5)nc23)c(C(F)(F)F)n1 [Example 19, 5-(3,6-diazabicyclo[3.1.1]hept-3-yl)-N-[1-methyl-3-(trifluoromethyl)-1H-pyrazol-4-yl]pyrazolo[1,5-a]pyrimidine-3-carboxamide trifluoroacetate]	6.41
Cn1cc(NC(=O)c2cnn3ccc(N4C[C@@H](O)C[C@H](O)C4)nc23)c(C(F)(F)F)n1 [Example 21, 5-[(3S,5S)-3,5-dihydroxypiperidin-1-yl]-N-[1-methyl-3-(trifluoromethyl)-1H-pyrazol-4-yl]pyrazolo[1,5-a]pyrimidine-3-carboxamide]	7.70
Cn1cc(NC(=O)c2cnn3ccc(N4CCC[C@H](O)C4)nc23)c(C(F)(F)F)n1 [Example 22, 5-[(3S)-3-hydroxypiperidin-1-yl]-N-[1-methyl-3-(trifluoromethyl)-1H-pyrazol-4-yl]pyrazolo[1,5-a]pyrimidine-3-carboxamide]	8.70
Cn1cc(NC(=O)c2cnn3ccc(N4CCC[C@@H](O)C4)nc23)c(C(F)(F)F)n1 [Example 23, 5-[(3R)-3-hydroxypiperidin-1-yl]-N-[1-methyl-3-(trifluoromethyl)-1H-pyrazol-4-yl]pyrazolo[1,5-a]pyrimidine-3-carboxamide]	9.05
Cn1cc(NC(=O)c2cnn3ccc(N4C[C@H](O)C[C@@H](O)C4)nc23)c(C(F)F)n1 [Example 24, N-[3-(difluoromethyl)-1-methyl-1H-pyrazol-4-yl]-5-[(3R,5R)-3,5-dihydroxypiperidin-1-yl]pyrazolo[1,5-a]pyrimidine-3-carboxamide]	8.40
Cn1cc(NC(=O)c2cnn3ccc(N4CCC[C@@H](O)C4)nc23)c(C(F)F)n1 [Example 25, N-[3-(difluoromethyl)-1-methyl-1H-pyrazol-4-yl]-5-[(3R)-3-hydroxypiperidin-1-yl]pyrazolo[1,5-a]pyrimidine-3-carboxamide]	9.30
Cn1cc(NC(=O)c2cnn3ccc(N4CCC[C@H](O)C4)nc23)c(C(F)F)n1 [Example 26, N-[3-(difluoromethyl)-1-methyl-1H-pyrazol-4-yl]-5-[(3S)-3-hydroxypiperidin-1-yl]pyrazolo[1,5-a]pyrimidine-3-carboxamide]	9.30
Cn1cc(NC(=O)c2cnn3ccc(N4CCNCC(F)C4)nc23)c(C(F)(F)F)n1 (stereo not shown) [Example 27, 5-(6-fluoro-1,4-diazepan-1-yl)-N-[1-methyl-3-(trifluoromethyl)-1H-pyrazol-4-yl]pyrazolo[1,5-a]pyrimidine-3-carboxamide trifluoroacetate]	6.83
Cn1cc(NC(=O)c2cnn3ccc(N4CCNC(C5CC5)C4)nc23)c(C(F)(F)F)n1 (stereo not shown) [Example 28, 5-(3-cyclopropylpiperazin-1-yl)-N-[1-methyl-3-(trifluoromethyl)-1H-pyrazol-4-yl]pyrazolo[1,5-a]pyrimidine-3-carboxamide trifluoroacetate]	7.14
Cn1cc(NC(=O)c2cnn3ccc(N4CCNCC4C4CC4)nc23)c(C(F)(F)F)n1 (stereo not shown) [Example 29, 5-(2-cyclopropylpiperazin-1-yl)-N-[1-methyl-3-(trifluoromethyl)-1H-pyrazol-4-yl]pyrazolo[1,5-a]pyrimidine-3-carboxamide trifluoroacetate]	7.62
Cn1cc(NC(=O)c2cnn3ccc(N4CCNC(C)(C)C4)nc23)c(C(F)(F)F)n1 [Example 30, 5-(3,3-dimethylpiperazin-1-yl)-N-[1-methyl-3-(trifluoromethyl)-1H-pyrazol-4-yl]pyrazolo[1,5-a]pyrimidine-3-carboxamide trifluoroacetate]	7.15
N[C@H]1CCCC[C@H]1Nc1ccn2ncc(C(=O)Nc3ccncc3C(F)(F)F)c2n1 [Example 31, 5-{[(1R,2S)-2-aminocyclohexyl]amino}-N-[3-(trifluoromethyl)pyridin-4-yl]pyrazolo[1,5-a]pyrimidine-3-carboxamide formate]	8.40
Cn1cc(NC(=O)c2cnn3ccc(N4CCC[C@@H](N)C4)nc23)c(C(F)(F)F)n1 [Example 32, 5-[(3R)-3-aminopiperidin-1-yl]-N-[1-methyl-3-(trifluoromethyl)-1H-pyrazol-4-yl]pyrazolo[1,5-a]pyrimidine-3-carboxamide]	8.52
CN1CCN(c2ccn3ncc(C(=O)Nc4cn(C)nc4C(F)(F)F)c3n2)CC1 [Example 34, 5-(4-methylpiperazin-1-yl)-N-[1-methyl-3-(trifluoromethyl)-1H-pyrazol-4-yl]pyrazolo[1,5-a]pyrimidine-3-carboxamide]	6.57
CN1CCN(c2ccn3ncc(C(=O)Nc4cn(C)nc4C(F)(F)F)c3n2)C(C)(C)C1 [Example 35, N-[1-methyl-3-(trifluoromethyl)-1H-pyrazol-4-yl]-5-(2,2,4-trimethylpiperazin-1-yl)pyrazolo[1,5-a]pyrimidine-3-carboxamide trifluoroacetate]	6.23

Structure (SMILES)	pIC50
Cn1cc(NC(=O)c2cnn3ccc(N4CCNCC(F)(F)C4)nc23)c(C(F)(F)F)n1 [Example 36, 5-(6,6-difluoro-1,4-diazepan-1-yl)-N-[1-methyl-3-(trifluoromethyl)-1H-pyrazol-4-yl]pyrazolo[1,5-a]pyrimidine-3-carboxamide trifluoroacetate]	6.42
N[C@H]1CCCC[C@H]1Nc1ccn2ncc(C(=O)Nc3ccccc3C(F)(F)F)c2n1 [Example 38, 5-{[(1R,2S)-2-aminocyclohexyl]amino}-N-[2-(trifluoromethyl)phenyl] pyrazolo[1,5-a]pyrimidine-3-carboxamide trifluoroacetate]	7.80
N#Cc1cscc1NC(=O)c1cnn2ccc(N[C@@H]3CCCC[C@@H]3N)nc12 [Example 39, 5-{[(1R,2S)-2-aminocyclohexyl]amino}-N-(4-cyanothiophen-3-yl)pyrazolo[1,5-a]pyrimidine-3-carboxamide trifluoroacetate]	8.70
Cn1cc(NC(=O)c2cnn3ccc(N4CCN5CCC4CC5)nc23)c(C(F)(F)F)n1 [Example 40, 5-(1,4-diazabicyclo[3.2.2]non-4-yl)-N-[1-methyl-3-(trifluoromethyl)-1H-pyrazol-4-yl]pyrazolo[1,5-a]pyrimidine-3-carboxamide trifluoroacetate]	6.30
Cn1cc(NC(=O)c2cnn3ccc(N4CCNCC4CC(F)(F)F)nc23)c(C(F)(F)F)n1 (stereo not shown) [Example 41, N-[1-methyl-3-(trifluoromethyl)-1H-pyrazol-4-yl]-5-[2-(2,2,2-trifluoroethyl)piperazin-1-yl]pyrazolo[1,5-a]pyrimidine-3-carboxamide trifluoroacetate]	6.97
N#Cc1sccc1NC(=O)c1cnn2ccc(N[C@@H]3CCCC[C@@H]3N)nc12 [Example 42, 5-{[(1R,2S)-2-aminocyclohexyl]amino}-N-(2-cyanothiophen-3-yl)pyrazolo[1,5-a]pyrimidine-3-carboxamide trifluoroacetate]	9.05
Cn1cc(NC(=O)c2cnn3ccc(N4CCN5CCC4C5)nc23)c(C(F)(F)F)n1 (stereo not shown) [Example 43, 5-(1,4-diazabicyclo[3.2.1]oct-4-yl)-N-[1-methyl-3-(trifluoromethyl)-1H-pyrazol-4-yl]pyrazolo[1,5-a]pyrimidine-3-carboxamide trifluoroacetate]	7.35
Cn1cc(NC(=O)c2cnn3ccc(N4CCC[C@H](N)C4)nc23)c(C(F)(F)F)n1 [Example 44, 5-[(3S)-3-aminopiperidin-1-yl]-N-[1-methyl-3-(trifluoromethyl)-1H-pyrazol-4-yl]pyrazolo[1,5-a]pyrimidine-3-carboxamide]	8.30
N[C@H]1CCCC[C@H]1Nc1ccn2ncc(C(=O)Nc3ccoc3C(F)(F)F)c2n1 [Example 45, 5-{[(1R,2S)-2-aminocyclohexyl]amino}-N-[2-(trifluoromethyl)furan-3-yl]pyrazolo[1,5-a]pyrimidine-3-carboxamide trifluoroacetate]	8.10
CC(C)(C)n1cc(NC(=O)c2cnn3ccc(N4CCNCC4)nc23)c(C(F)(F)F)n1 [Example 46, N-[1-tert-butyl-3-(trifluoromethyl)-1H-pyrazol-4-yl]-5-piperazin-1-ylpyrazolo[1,5-a]pyrimidine-3-carboxamide trifluoroacetate]	7.32
CC(C)(C)n1cc(NC(=O)c2cnn3ccc(N4CCNCC5(CC5)C4)nc23)c(C(F)(F)F)n1 [Example 47, N-[1-tert-butyl-3-(trifluoromethyl)-1H-pyrazol-4-yl]-5-(5,8-diazaspiro[2.6]non-5-yl)pyrazolo[1,5-a]pyrimidine-3-carboxamide trifluoroacetate]	7.31
CC(C)(C)n1cc(NC(=O)c2cnn3ccc(N[C@@H]4CCCC[C@@H]4O)nc23)c(C(F)(F)F)n1 [Example 48, N-[1-tert-butyl-3-(trifluoromethyl)-1H-pyrazol-4-yl]-5-{[(1R,2S)-2-hydroxycyclohexyl]amino} pyrazolo[1,5-a]pyrimidine-3-carboxamide trifluoroacetate]	6.59
CC(C)(C)n1cc(NC(=O)c2cnn3ccc(N[C@@H]4CCCC(F)(F)[C@@H]4N)nc23)c(C(F)(F)F)n1 [Example 49, 5-{[(1R,2R)-2-amino-3,3-difluorocyclohexyl]amino}-N-[1-tert-butyl-3-(trifluoromethyl)-1H-pyrazol-4-yl]pyrazolo[1,5-a]pyrimidine-3-carboxamide trifluoroacetate]	6.05
CC(C)(C)n1cc(NC(=O)c2cnn3ccc(N4CC5CCC4CN5)nc23)c(C(F)(F)F)n1 (stereo not shown) [Example 50, N-[1-tert-butyl-3-(trifluoromethyl)-1H-pyrazol-4-yl]-5-(2,5-diazabicyclo[2.2.2]oct-2-yl)pyrazolo[1,5-a]pyrimidine-3-carboxamide trifluoroacetate]	7.05
CC(C)n1cc(NC(=O)c2cnn3ccc(N4CCNCC5(CC5)C4)nc23)c(C(F)(F)F)n1 [Example 51, 5-(5,8-diazaspiro[2.6]non-5-yl)-N-[1-(1-methylethyl)-3-(trifluoromethyl)-1H-pyrazol-4-yl]pyrazolo[1,5-a]pyrimidine-3-carboxamide]	7.49
